Test results published in ChEMBL document CHEMBL5584221, “Anti-inflammatory and Neuroprotective α-Pyrones from a Marine-Derived Strain of the Fungus Arthrinium arundinis and Their Heterologous Expression” (2024).
Active and inactive are the calls of the source. The rule behind the calls is not given here.

Legend:
BV-2 [1] = test: Antiinflammatory activity against mouse BV-2 cells assessed as inhibition of LPS-induced nitric oxide release at 20 uM measured after 24 hrs by Griess reagent based ELISA relative to control; assay type: functional
BV-2 [2] = test: Antiinflammatory activity against mouse BV-2 cells assessed as inhibition of LPS-induced iNOS mRNA expression at 20 uM measured after 24 hrs by SYBR green staining based RT-PCR analysis; assay type: functional, cell-based
BV-2 [3] = test: Antiinflammatory activity against mouse BV-2 cells assessed as inhibition of LPS-induced decrease of IL-10 at 2 to 20 uM measured after 24 hrs by ELISA; assay type: functional, cell-based; conditions: dose 2-20 µM
BV-2 [4] = test: Antiinflammatory activity against mouse BV-2 cells assessed as inhibition of LPS-induced decrease of IL-4 at 2 to 20 uM measured after 24 hrs by ELISA; assay type: functional, cell-based; conditions: dose 2-20 µM
BV-2 [5] = test: Antiinflammatory activity against mouse BV-2 cells assessed as effect on LPS-induced TGFbeta mRNA expression at 20 uM measured after 24 hrs by SYBR green staining based RT-PCR analysis; assay type: functional, cell-based
BV-2 [6] = test: Antiinflammatory activity against mouse BV-2 cells assessed as effect on LPS-induced CD206 mRNA expression at 20 uM measured after 24 hrs by SYBR green staining based RT-PCR analysis; assay type: functional, cell-based
BV-2 [7] = test: Antiinflammatory activity against mouse BV-2 cells assessed as inhibition of LPS-induced TNF-alpha production at 2 to 20 uM measured after 24 hrs by ELISA; assay type: functional, cell-based; conditions: dose 2-20 µM
BV-2 [8] = test: Antiinflammatory activity against mouse BV-2 cells assessed as inhibition of LPS-induced IFN-gamma production at 2 to 20 uM measured after 24 hrs by ELISA; assay type: functional, cell-based; conditions: dose 2-20 µM
BV-2 [9] = test: Antiinflammatory activity against mouse BV-2 cells assessed as effect on LPS-induced Arg1 mRNA expression at 20 uM measured after 24 hrs by SYBR green staining based RT-PCR analysis; assay type: functional, cell-based
Cortical neurone [10] = test: Neuroprotective activity against amyloid beta (25 to 35 residues)-induced neuritic atrophy in ICR mouse primary cortical neurons assessed as increase in length of MAP2-positive dendrite at 2 to 20 uM measured after 4 days by immunostaining based fluorescence microscopy; assay type: functional, cell-based; conditions: dose 2-20 µM, time 4.0 day
Cortical neurone [11] = test: Neuroprotective activity against amyloid beta (25 to 35 residues)-induced cell death in ICR mouse primary cortical neurons assessed as increase in cell viability at 20 uM measured after 2 days by CCK-8 assay; assay type: functional, cell-based; conditions: time 2.0 day

## CCC(C)/C=C(\CO)CCCC(/C=C(C)/C=C(\C)C[C@@H](C)c1oc(=O)c(C)c(O)c1C)C(=O)O (some centres undefined)
BV-2 [1]
  inhibition at 20 µM: > 50%

## CCC(C)(O)/C=C(\CO)CCCC(/C=C(C)/C=C(\C)C[C@@H](C)c1oc(=O)c(C)c(O)c1C)C(=O)O (some centres undefined)
BV-2 [1]
  inhibition at 20 µM: > 50%

## CC1=C[C@@](CO)(CCCC(/C=C(C)/C=C(\C)C[C@@H](C)c2oc(=O)c(C)c(O)c2C)C(=O)O)O[C@H]1C (some centres undefined)
BV-2 [1]
  inhibition at 20 µM: > 50%

## CC(=C\C(CCCc1cc(C)c(C)o1)C(=O)O)/C=C(\C)C[C@@H](C)c1oc(=O)c(C)c(O)c1C (some centres undefined)
BV-2 [2]
  inhibition: Active
BV-2 [3]
  inhibition: Active
BV-2 [1]
  inhibition at 20 µM: > 50%
BV-2 [4]
  inhibition: Active
BV-2 [5]
  Activity: inactive
BV-2 [6]
  Activity: inactive
BV-2 [7]
  inhibition: Active
BV-2 [8]
  inhibition: Active
BV-2 [9]
  Activity: inactive
Cortical neurone [10]
  Activity: Active
Cortical neurone [11]
  Activity: Active
